A short description of data set [1]: Accelerated stability in the quantification of UA (uric acid). Type of data set: physicochemical. The conditions noted are these: stored at 40° C., day 7, 14, 21 and 28; low concentration region of UA (2.1 mg/dL); FIG. 14. As to the method:
At day 7, 14, 21 and 28, the reagents (wrapped with aluminum foil) stored in a chamber at 40° C. were taken out and brought back to room temperature. Also, the samples were taken out of a freezing chamber and naturally thawed at room temperature. They were mixed on a vortex mixer and used for the measurement. The absorbance was measurement similarly to the measurement of the linearity.

For data set [2] the following is noted: general statement on the conventional reagent; cited from earlier work.
Data set [3] is described as follows: Solution stability under photo irradiation (optical stability). Type of data set: physicochemical. As to conditions: 0.25 mM in 50 mM MES buffer (pH 6.5), under fluorescent lamp, temporal change in absorbance at 650 nm; FIG. 1. As to the method: Solution stability under photo irradiation was tested as follows. Each sample solution of Compound A, B, C and D according to the invention and DA-67 was prepared with 50 mM MES buffer (pH 6.5) in the concentration of 0.25 mM. Temporal change in the absorbance at 650 nm of each reagent prepared placed under fluorescent lamp was monitored.

Turning to `CN(C)c1ccc2c(c1)Sc1cc(N(C)C)ccc1N2C(=O)NCC(=O)O` [DA-67, reference compound], in data set [1], the “order of accelerated stabilities” value is listed as “Compound A according to the invention>Compound D according to the invention≈DA-67>Compound B according to the invention>Compound C according to the invention”. The “solubility in water (stated drawback)” value in data set [2] is “poor solubility in water”. Also, the optical stability entry in data set [3] was “DA-67 ≃Compound B according to the invention≈Compound C according to the invention<Compound A according to the invention<Compound D according to the invention”.

With `CN(C)c1ccc2c(c1)Sc1cc(N(C)C)ccc1N2C(=O)NCCS(=O)(=O)O` [Compound A], the “order of accelerated stabilities” value in data set [1] is given as “Compound A according to the invention>Compound D according to the invention≈DA-67>Compound B according to the invention>Compound C according to the invention”. Besides, in data set [3], the optical stability entry is reported as “DA-67 ≃Compound B according to the invention≈Compound C according to the invention<Compound A according to the invention<Compound D according to the invention”.

`CN(C)c1ccc2c(c1)Sc1cc(N(C)C)ccc1N2C(=O)NCC(=O)NCC(=O)O` [Compound D]: the “order of accelerated stabilities” value in data set [1] is given as “Compound A according to the invention>Compound D according to the invention≈DA-67>Compound B according to the invention>Compound C according to the invention”. Moreover, in data set [3], the optical stability result is listed as “DA-67 ≃Compound B according to the invention≈Compound C according to the invention<Compound A according to the invention<Compound D according to the invention”.

Turning to `CN(C)c1ccc2c(c1)Sc1cc(N(C)C)ccc1N2C(=O)NCCC(=O)O` [Compound B], the “order of accelerated stabilities” value in data set [1] is given as “Compound A according to the invention>Compound D according to the invention≈DA-67>Compound B according to the invention>Compound C according to the invention”. Further, in data set [3], the optical stability entry is reported as “DA-67 ≃Compound B according to the invention≈Compound C according to the invention<Compound A according to the invention<Compound D according to the invention”.

Values taken from US10787571B2, “Oxidation color developable compound and oxidation color development reagent” (DOJINDO LABORATORIES, priority 2017, dated 2020).
